Entries after “also recorded” stand apart in the source; their conditions may differ.
Legend:
[1] = tested on: Fmr1 knockout (KO) or Wild Type (WT) mice; assay: Contextual fear conditioning (freezing); format: in vivo, mouse
Protocol: (§1) Fmr1 knockout mice (KO2) mice (The Dutch-Belgium Fragile X Consortium, 1994), initially obtained from the Jackson Laboratory, and wild type (WT) littermates were generated on a C57BL/6J background and repeatedly backcrossed onto a C57BL/6J background for more than eight generations. The Fmr1 knockout mice were housed in groups of the same genotype in a temperature and humidity controlled room with a 12-h light-dark cycle (lights on from 7 am to 7 pm; testing was conducted during light phase). Room temperature and humidity were recorded continuously in the holding room while food and water were available ad libitum. Testing was conducted on healthy Fmr1 knockout mice and their wild type littermates (N=10 mice per treatment group) at 2 or 6 months of age during the behavioral experiments. Mice were housed in commercial plastic cages and experiments were conducted in line with the requirements of the UK Animals (Scientific Procedures) Act, 1986. All experiments were conducted with experimenters blind to genotype and drug treatment. Animals were allowed a minimum acclimatization period of one week prior to performing any experiment. No prophylactic or therapeutic treatment was administered during the acclimatization period.
(§2) In all cases, saline was used as a vehicle (control).
In the fear conditioning experiment, mice were placed into a novel environment (dark chamber) and received pairings of a cue and electric footshock (0.2 mA for 1 sec (Study 1) or 0.7 mA for 0.5 sec (Study 2)). […] Freezing time was defined as the time that the mice spent in immobile behavior, except for respiration. The data was expressed as the percentage of the test period. 24 hours after a training session, mice were tested for 5 min in the training chamber with no shock presentation and observed for freezing behavior.
Multivariate analysis of variance was employed to assess group differences across data. Repeated measures ANOVA were performed for behavioral data. Statistically significant effects in each ANOVA were followed with post hoc comparisons, using the Newman-Keuls test (Study 1) or the Tukey test (Study 2). A p value of less than 0.05 was considered significant.

[2] = tested on: Fmr1 knockout (KO) or Wild Type (WT) mice; assay: Y-maze reference memory task (rewarded); format: in vivo, mouse; conditions: 2 months old, 150 mg/kg once daily 7 days, Study 1
Protocol: as §1, §2
Two tasks were implemented. The first was an unlearned assessment of spontaneous alternation between arm entries. […]

[3] = tested on: Fmr1 knockout (KO) or Wild Type (WT) mice; assay: Y-maze water maze left right discrimination; format: in vivo, mouse; conditions: 2 months old, 150 mg/kg once daily 7 days, Study 1
Protocol: as §1, §2
A clear Perspex Y-maze was filled with 2 cm of water at 20° C. […]

Akt = assay: Lymphocyte pAkt (flow cytometry); format: in vivo, mouse; conditions: Fmr1 KO mice, 2 months old
Protocol: as §2
The Ras-Mek-ERK and PI3K-Akt-mToR signaling pathways are involved in mediating activity dependent alterations in gene transcription underlying changes in synaptic plasticity (Klann and Dever, 2004). Phosphorylated ERK and Akt protein expression was measured by western blot analysis as previously described by Lopez Verrilli (Lopez Verrilli et al., 2009). The antibodies employed were anti-phosphospecific antibodies against Akt (1/1000) and kinase (ERK) 1/2 (1/2000) (Cell Signaling Technology, Danvers, Mass., USA). The antibody against phospho-ERK detects phosphorylation at phospho-ERK 1/2 (Thr202/Tyr204) whereas the antibody against phospho-Akt detects phosphorylation at phospho-Akt (Thr308). Total Akt and ERK 1/2 protein content and phosphorylated ERK and Akt were evaluated by blotting membranes with antiphospho-Akt (1/1000) and antiphospho-ERK antibodies (1/2000) (Cell Signaling Technology, Danvers, Mass., USA). Akt or ERK phosphorylation was normalized to protein content in the same sample and expressed as % of change with respect to basal conditions, considering basal levels as 100%. Protein loading was evaluated by stripping and re-blotting membranes with j-actin antibody (1/1000) (Sigma-Aldrich, St. Louis, Mo., USA). Phosphorylated ERK and Akt protein expression in blood lymphocytes was measured by flow cytometry. For lymphocyte biomarker determinations, a FACStar plus (Becton Dickinson) was used with the excitation laser tuned at 488 nm and green fluorescence from FITC (GST) was collected through a 515-545 nm bandpass filter. The mean FITC fluorescence Intensity was calculated in relation to the fluorescence of reference cells. The mean cellular fluorescence intensity (MFI) is directly proportional to the mean number of Ab molecules bound per cell.

[4] = tested on: primary hippocampal neurons from Fmr1 knockout mice; assay: Dendritic filopodia density and maturation in vitro; format: cell-based, mouse; conditions: neurons from Fmr1 KO mice, 300 μM, five hours
Protocol: as §2
Hippocampal cell cultures were prepared from wild type and Fmr1 KO fetal mice at embryonic day of gestation 17.5 (E17.5). Mice were killed by cervical dislocation and dissociated hippocampal cells were plated in 15 mm multi well vessels (Falcon Primaria). After 5 d in vitro, green fluorescent protein (GFP) was transfected to facilitate monitoring dendritic spine morphogenesis after drug treatment (Ethell and Yamaguchi, 1999; Ethell et al., 2001, Henkemeyer et al., 2003). Dendritic spines were formed at around 16 days in vitro (DIV).
Filopodia density of GFP transfected neurons was quantified by performing Sholl analyses of stacked Zeiss confocal generated images (40× objective, stack of 20×0.2 μm). With Metamorph software, concentric equally spaced circles (every 20 μm) were drawn around the cell soma of each neuron and subsequently, the amount of filopodia was counted per circle. Averages of counts were compared with unpaired two-tailed Student's T-tests.
Spine maturity of GFP transfected neurons was analyzed with Metamorph software (Molecular Devices, Sunnyvale, Calif.). Two distal dendritic segments of 70 100 μm were chosen per neuron for spine morphometric analysis. For each spine, the length and the width were measured. The length was defined as the distance from the base to the tip of the protrusion; whereas width was defined as the maximum distance perpendicular to the long axis of the spine. Measurements were compared with unpaired two tailed Student's T-tests and ANOVA corrected for multiple comparisons.

Cc1ncc(CO)c(CO)c1O.O=C1CC[C@@H](C(=O)O)N1 [metadoxine, pyridoxol L,2-pyrrolidon-5 carboxylate]
contextual fear conditioning, freezing (learning deficit) ([1]; Fmr1 KO mice aged six months, 150 mg/kg ip once daily 7 days, Study 2): complete reversal
contextual fear conditioning, freezing (learning deficit) ([1]; Fmr1 KO mice, 2 months old, 100 mg/kg ip once daily 7 days, Study 1): partial reversal
contextual fear conditioning, freezing (learning deficit) ([1]; Fmr1 KO mice, 2 months old, 150 mg/kg ip once daily 7 days, Study 1, 150 mg/kg): reversed the learning deficit effect in Fmr1 knockout mice, this reversal being partial; also recorded: fully rescued
contextual fear conditioning, freezing behavior ([1]; Fmr1 KO mice, 2 months old, 150 mg/kg ip once daily 7 days, Study 2): the reversal was complete
contextual fear conditioning, freezing behavior ([1]; Fmr1 KO mice, 2 months old, 150 mg/kg oral once daily 7 days, Study 2): the reversal was complete
contextual fear conditioning, freezing (learning deficit) ([1]; Fmr1 KO mice, 2 months old, 200 mg/kg ip once daily 7 days, Study 1, 200 mg/kg): completely reversed; also recorded: fully rescued
contextual fear conditioning, freezing behavior ([1]; Fmr1 KO mice, 2 months old, 300 mg/kg oral once daily 7 days, Study 2): the reversal was complete
contextual fear conditioning, freezing behavior ([1]; WT mice, 2 months old, 150 mg/kg ip or 150 and 300 mg/kg oral, 7 days, Study 2): No effects were seen
contextual fear conditioning, freezing ([1]; WT mice, 2 months old, 100, 150 or 200 mg/kg ip once daily 7 days, Study 1): no effect on WT mice
Y-maze rewarded reference memory learning (appropriate arm entries) ([2]; Fmr1 KO mice): reduced this deficit
Y-maze rewarded reference memory learning ([2]; WT mice): No Effect on WT Mice
Y-maze water maze spatial discrimination (incorrect arm entries) [3]: deficit was reduced
lymphocyte pAkt (Akt; 150 mg/kg ip once daily 7 days): normalized overactivated Akt
lymphocyte pAkt (Akt; 150 mg/kg oral once daily 7 days): normalized overactivated Akt
lymphocyte pAkt (Akt; 300 mg/kg oral once daily 7 days): normalized overactivated Akt
density of neuronal filopodia [4]: reduced the aberrant increase in density of neuronal filopodia
filopodia length [4]: reversed this increase in filopodia length
filopodia width [4]: reversed the decrease in width

Source: patent US9851354B2, “Methods of treating fragile X syndrome and related disorders” (Alcobra Ltd., priority 2013, dated 2017)
